Laboratory results from patent US20200383844A1, “ABSORBENT ARTICLE” (Kao Corporation, priority 2017, published 2020).

How the values were obtained:
[1] = Viscosity of liquid film cleavage agent; format: physicochemical; details: 25° C., RH 65%, average of three
Procedure: First, 40 g of a liquid film cleavage agent is prepared. […] This operation is repeated three times, and an average value is adopted as the viscosity. In addition, when the liquid film cleavage agent is solid, the liquid film cleavage agent is heated to a temperature of a melting point of the liquid film cleavage agent plus 5° C. to induce phase transition into liquid, and the measurement is performed with keeping the temperature conditions.
As a result of measuring viscosity by the method shown in (Method for measuring viscosity of liquid film cleavage agent) described above, the viscosity of the liquid film cleavage agent was 163 cps.

[2] = Surface tension of liquid film cleavage agent; format: physicochemical; details: 25° C., RH 65%
[3] = From the text: (§1) Definitions of “spreading coefficient to the liquid having surface tension of 50 mN/m” and “water solubility” of the liquid film cleavage agent, as specified in the first aspect and the second aspect, and measuring methods of surface tension (γw) of a liquid film (liquid having surface tension of 50 mN/m), surface tension (γo) of a liquid film cleavage agent, interfacial tension (γwo) between the liquid film and the liquid film cleavage agent, and water solubility of the liquid film cleavage agent are as described in the paragraphs {0015} to {0022} in WO 2016/098796.
Hereinafter, the present invention will be described more in detail with reference to Examples, but the present invention is not limited thereto. In addition, both terms “part” and “%” in the Examples are based on mass unless otherwise noted. […] In addition, a sign “-” in the following Tables means that neither an agent shown in a name of an item is used, nor the result has an applicable value in the item, or the like. Moreover, a leftward arrow “←” means that the content is the same as described in an adjacent column indicated by the arrow.
(§2) On the occasion, as a “liquid having surface tension of 50 mN/m,” a solution was used, in which the solution was prepared by adding, to 100 g of deionized water, 3.75 μL of POE sorbitan monolaurate (trade name “RHEODOL Super TW-L120,” manufactured by Kao Corporation) being a nonionic surface active substance by a micropipette (trade name “ACURA 825,” manufactured by Socorex Isba SA), and adjusting the surface tension to 50±1 mN/m. Moreover, the water solubility was measured by adding the agent for every 0.0001 g.

[4] = Spreading coefficient of liquid film cleavage agent; format: physicochemical; details: 25° C., RH 65%
From the text: as §1
(§3) Hereinafter, the present invention will be described more in detail with reference to Examples, but the present invention is not limited thereto. In addition, both terms “part” and “%” in the Examples are based on mass unless otherwise noted. […]
as §2

[5] = Interfacial tension of liquid film cleavage agent; format: physicochemical; details: 25° C., RH 65%
From the text: as §1, §3, §2

| Substance | Viscosity [1] | Surface tension [2] | Water solubility [3] | Spreading coefficient to liquid having surface tension of 50 mN/m [4] | Interfacial tension to liquid having surface tension of 50 mN/m [5] |
| --- | --- | --- | --- | --- | --- |
| POP alkyl ether [POP(15) alkyl ether] | 129 cps | 31.8 mN/m | ← g | 5.4 mN/m | 12.8 mN/m |
| POP-modified dimethyl silicone [POP(12)-modified dimethyl silicone] | – | – | 0.025 or less g | – | – |
| PPG | – | – | 0.025 or less g | – | – |
| epoxy-modified dimethyl silicone | – | – | ← g | – | – |
